In data set [1] the test system is Staphylococcus aureus (ATCC 29213). In words: Minimum bactericidal concentration (MBC) assay. The class given is cell-based. Particulars: Tables 11-21, no unit printed. An outline of the steps:
(§1)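 Bacteria grown in 3% TSB at 37° C, diluted in 10 mM sodium phosphate/1% TSB and exposed at 1×10^5 CFU/ml to peptide (0-300 μg/ml) for 1 h at 37° C. Aliquots plated on TS agar, 18 h at 37° C; MBC is lowest concentration giving no colonies.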

The subject of data set [2] is Staphylococcus aureus, Pseudomonas aeruginosa, methicillin-resistant Staphylococcus aureus and multidrug-resistant Pseudomonas aeruginosa. As to the kind of experiment: Bacteria remaining in the blood of infected mice after intravenous injection of the drug. The class given is in vivo, mice (C57BL/6). The note with it: 10 mg/kg intravenous 1 hour after infection; blood 40 minutes after injection; compared with LL-37, magainin 2, daptomycin. On the procedure:
Specifically, Staphylococcus aureus, Pseudomonas aeruginosa, methicillin-resistant Staphylococcus aureus and multidrug-resistant Pseudomonas aeruginosa was cultured in 3% (w/v) TSB liquid medium at 37° C. and 200 rpm for 4 hours, and then further cultured under the same conditions for 3 hours to a concentration of 5×10^9 CFU/ml. Strain solutions were prepared by diluting each of the further cultured strains with PBS solution to a final concentration of 1×10^5 CFU/μl.
Next, 100 μl of each strain solution was injected intravenously (IV) into the tail vein of each of 10-week-old male mice (C57BL/6). After one hour, KU-5878 was intravenously injected at a concentration of 10 mg/kg. As a control, PBS was intravenously injected at a concentration of 10 mg/kg, and as a positive control, LL-37, magainin 2, or daptomycin was intravenously injected at a concentration of 10 mg/kg.
40 minutes after the intravenous injection of each drug, about 1 cm from the tail end of each mouse was cut using surgical scissors, and 10 μl of the blood at the end of the cut was collected and diluted in PBS. The diluted blood sample was plated on a previously prepared TSB agar plate and incubated in an incubator at 37° C. for 18 hours, and the formed colonies were counted for comparison.

Data set [3] relates to Pseudomonas aeruginosa (ATCC 27853). In words: Minimum bactericidal concentration (MBC) assay. The class given is cell-based. The note with it: Tables 11-21, no unit printed. An outline of the steps: as §1
A further data set has as its system mouse red blood cells. The format is cell-based. On the procedure: Red blood cells were diluted with PBS, centrifuged 3 times at 900 g for 10 minutes, and washed. 100 μl of the diluted red blood cell solution (10% v/v PBS) was dispensed into each well of a 96-well microplate, and KU-5878, KU-5878-K4, KU-5878-K4-D, melittin, magainin 2 or daptomycin was added to each well which was then filled with PBS to 200 μl, followed by reaction by incubation at 37° C. for 1 hour. Then, the supernatant of the reaction solution was separated, and the absorbance at a wavelength of 550 nm was measured using a spectrophotometer. As control, PBS and 0.1% Triton X-100 (Triton X-100) solution were used.
Based on the results of measurement of the absorbance, the degree of red blood cell destruction was calculated according to Equation 1 below, and the results of the calculation are shown in FIG. 6. % The intact RBC=100(%)−[(absorbance of peptide-treated red blood cell solution−absorbance of PBS-treated red blood cell solution)/(absorbance of Triton X-100-treated red blood cell solution−absorbance of PBS-treated red blood cell solution)×100(%)] [Equation 1]

Data set [4] can be described thus: Toxicity in vivo (survival and weight after intravenous injection). Particulars: 100 mg/kg intravenous. Set-up: species or system mouse (C57BL/6). Here is the method: At this time, the maximum volume of the injection dose was 150 μl.
Data set [5] concerns Methicillin-resistant Staphylococcus aureus (MRSA, ATCC 33591). In words: Minimum bactericidal concentration (MBC) assay. The class given is cell-based. Particulars: Tables 11-21, no unit printed. An outline of the steps:
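Peptide at 0 to 300 μg/ml reacted 1 h at 37 °C with 1×10^5 CFU/ml bacteria in SP buffer (10 mM sodium phosphate, 1% TSB), bacteria pre-grown in 3% TSB. Aliquots then spread on TS agar and checked for colonies after 18 h at 37 °C.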

No end group written: not given here.

Sequence KTMMQSGGTFGTFMAIGMGIR [KU-5878] returned an MBC Staphylococcus aureus in data set [1] of 100 µg/mL. Also, in data set [2], the “number of bacteria remaining in the blood vessels of the mice” value is recorded as “most greatly decreased”. In addition, the MBC Pseudomonas aeruginosa in data set [3] was 100 µg/mL. For the same sequence, in the data set with mouse red blood cells, the “hemolysis of red blood cells” value is given as “little hemolysis even at a high concentration”. Besides, the “effect on the weight of the mice” value in data set [4] (24-hour intervals for 12 days) is reported as “no effect on the weight”. The “survival of mice after injection” value in data set [4] (observed 12 days) is reported as “all survived”. For the same sequence, the MBC MRSA in data set [5] came out at 110 µg/mL; in data set [5] (listed as 5878) it was 100 µg/mL.

The values above are taken from patent US12115209B2, “ROMO1-derived antimicrobial peptides including lysine substitution and variants thereof” (KOREA UNIVERSITY RESEARCH AND BUSINESS FOUNDATION, priority 2019, dated 2024).
